This note sets out measurements from patent US20250163006A1, “New Coolants, and Preparations Containing Same” (Symrise AG, priority 2022, published 2025).

T1 sequence (Q7Z2W7 whole entry): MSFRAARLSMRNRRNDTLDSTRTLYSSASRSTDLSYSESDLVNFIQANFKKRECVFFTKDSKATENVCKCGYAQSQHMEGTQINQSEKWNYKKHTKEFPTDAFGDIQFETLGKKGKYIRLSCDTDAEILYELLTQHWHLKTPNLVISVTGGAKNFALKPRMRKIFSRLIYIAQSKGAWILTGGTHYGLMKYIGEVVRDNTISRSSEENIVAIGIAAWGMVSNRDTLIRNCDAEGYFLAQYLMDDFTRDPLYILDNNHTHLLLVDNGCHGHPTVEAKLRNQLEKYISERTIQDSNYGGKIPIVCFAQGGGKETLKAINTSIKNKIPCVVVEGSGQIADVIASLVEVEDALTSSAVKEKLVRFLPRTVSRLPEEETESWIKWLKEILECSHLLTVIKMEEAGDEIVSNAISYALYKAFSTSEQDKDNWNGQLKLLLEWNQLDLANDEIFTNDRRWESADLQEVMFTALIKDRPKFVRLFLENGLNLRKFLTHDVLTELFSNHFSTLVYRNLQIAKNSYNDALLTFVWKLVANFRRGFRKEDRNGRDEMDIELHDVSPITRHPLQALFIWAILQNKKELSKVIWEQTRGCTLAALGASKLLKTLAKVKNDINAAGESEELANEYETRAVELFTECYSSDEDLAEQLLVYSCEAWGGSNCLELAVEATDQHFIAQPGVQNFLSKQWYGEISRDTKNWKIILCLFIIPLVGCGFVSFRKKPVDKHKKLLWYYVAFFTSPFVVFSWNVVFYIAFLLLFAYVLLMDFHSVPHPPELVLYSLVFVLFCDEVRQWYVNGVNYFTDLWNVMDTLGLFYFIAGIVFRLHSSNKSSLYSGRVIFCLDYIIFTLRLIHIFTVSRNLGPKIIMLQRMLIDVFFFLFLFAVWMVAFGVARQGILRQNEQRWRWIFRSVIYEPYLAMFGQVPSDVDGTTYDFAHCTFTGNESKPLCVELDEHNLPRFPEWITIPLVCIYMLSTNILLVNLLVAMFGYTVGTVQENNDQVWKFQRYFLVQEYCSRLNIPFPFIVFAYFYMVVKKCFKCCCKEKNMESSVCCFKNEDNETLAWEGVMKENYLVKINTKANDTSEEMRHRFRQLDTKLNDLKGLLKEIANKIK

This experiment has as its target T1, human TRPM8 receptor (Homo sapiens, UniProt Q7Z2W7).
T1 construct: expressed in transfected cells; host or cells: HEK293, stably transfected, tetracycline-inducible expression
The experiment can be described thus: Assay on TRPM8 modulators: Ca2+-sensitive dye (Fluo-4) fluorescence in HEK293-TRPM8 test cells. The following applies: HEK293 cells recombinantly expressing human TRPM8. Further details: relative TRPM8 activation: concentration or dose not given beside the values. The format is cell-based. The source says:
The starting point for cloning the human TRPM8 receptor is an LnCaP cDNA bank. This is commercially available (e.g. BioChain, Hayward, USA) or can be produced from the andro gene-sensitive human prostate adenocarcinoma cell line LnCaP (e.g. ATCC, CRL1740 or ECACC, 891 1021 1) using standard kits.
The coding TRPM8 sequence (see e.g. http://www. ncbi.nlm.nih.gov/entrez/viewer.fcgi?db=nuccore&id=109689694) can be PCR-amplified and cloned using standard methods. The human TRPM8 gene isolated in this way was used to produce the plasmid plnd_M8. Alternatively, the TRPM8 gene can also be produced synthetically.
A stably transfected HEK293 cell line was produced as a test cell system using human TRPM8 DNA. Preference was given to HEK293, which offers the possibility of inducing TRPM8 expression using tetracycline via the plasmid introduced.
A test similar to the test already described in the literature by Behrendt H. J. et al, Br. J. Pharmacol. 141, 2004, 737-745, is performed. The agonization or antagonization of the receptor can be quantified using a Ca^2+-sensitive dye (e.g. FURA, Fluo-4 etc.). Agonists alone cause an increase in the Ca^2+ signal; antagonists cause a reduction in the Ca^2+ signal in the presence of e.g. menthol (detected in each case using the Fluo-4 dye, which has different fluorescence properties due to Ca^2+ ions).
First, a fresh culture of transformed HEK cells is prepared in cell culture flasks in the usual way. The HEK293-TRPM8 test cells are detached from the cell culture flasks using trypsin and 40,000 cells/well are seeded with 100 μl medium in 96-well plates (Greiner #655948 poly-D-lysine-coated). To induce the TRPM8 receptor, tetracycline is added to the growth medium (DMEM/HG, 10% FCS tetracycline-free, 4 mM L-glutamine, 15 μg/ml blasticidin, 100 μg/ml hygromycin B, 1 μg/ml tetracycline).
On the following day, the cells are loaded with Fluo-4AM dye and the test is performed. Proceed as follows: Addition of 100 μl/well staining solution Ca-4 kit (RB 141, Molecular Devices) to each 100 μl medium (DMEM/HG, 10% FCS tetracycline-free, 4 mM L-glutamine, 15 μg/ml blasticidin, 100 μg/ml hygromycin B, 1 μg/ml tetracycline).
Incubation in incubator, 30 minutes/37° C./5% CO2, 30 minutes/RT.
Preparation of the test substances (different concentrations in 200 μl HBSS buffer), as well as positive controls (different concentrations of menthol, icilin or lonomycin in 200 μl HBSS buffer) and negative controls (only 200 μl HBSS buffer) Addition of the test substances in quantities of 50 μl/well and measurement of the fluorescence change (e.g. in the assay device FLIPR, Molecular Devices or NovoStar, BMG) at 485 nm excitation, 520 nm emission, and evaluation of the potency of the different substances/concentrations and determination of the ECG. e.g. in the FLIPR assay device, Molecular Devices or NovoStar, BMG) at 485 nm excitation, 520 nm emission, and evaluation of the potency of the various substances/concentrations and determination of the EC50 values.
The test substances are used in triplicates in concentrations of 0.1-200 μM in the assay. Normally, the compounds are kept ready in DMSO solutions and diluted down to a maximum DMSO concentration of 2% for the assay.
The activity of the active substances in relation to activation of the TRPM8 channel is determined using the assay described. This is done in a concentration-dependent manner. For each active substance, 6 to 10 concentrations are measured as standard. A mathematical method (4-parameter or 5-parameter logistic curve fitting) can be used to determine the EC50 value as the inflection point of the sigmoidal curve from the activity values determined. These are standard biochemical methods that are familiar to experts.
On to `OCCNc1nnc(-c2ccccc2)c(-c2ccccc2)n1` [Compound B-58, 2-[(5,6-diphenyl-1,2,4-triazin-3-yl)amino]ethanol], for which the “relative TRPM8 activation” value is 1%.
Then `CNC(=O)CCSc1ncco1` [Compound A-45, N-methyl-3-oxazol-2-ylsulfanyl-propanamide], with 2%; and `CCC(=O)C(C)Sc1nnc(-c2ccccc2)c(-c2ccccc2)n1` (stereo not drawn) [Compound B-29, 2-[(5,6-diphenyl-1,2,4-triazin-3-yl)sulfanyl]pentan-3-one], with 42%.
The figure for `c1ccc(CSc2nc(-c3ccccc3)c(-c3ccccc3)o2)cc1` [Compound A-54, 2-benzylsulfanyl-4,5-diphenyl-oxazole] is 1%.
For the compound `Cc1ccc(-c2nnc(SC(C)C(=O)N3CCCC3)nc2-c2ccc(C)cc2)cc1` (stereo not drawn) [Compound B-38, 2-[[5,6-bis(p-tolyl)-1,2,4-triazin-3-yl]sulfanyl]-1-pyrrolidin-1-yl-propan-1-one], the “relative TRPM8 activation” value was found to be 11%.
The figure for `CC(C)C(C)NC(=O)CSc1nc(-c2ccccc2)c(-c2ccccc2)o1` (stereo not drawn) [Compound A-46, N-(1,2-dimethylpropyl)-2-(4,5-diphenyloxazol-2-yl)sulfanyl-acetamide] is 2%; for `O=C(CSc1nc(-c2ccccc2)c(-c2ccccc2)o1)NC1CCC1` [Compound A-43, N-cyclobutyl-2-(4,5-diphenyloxazol-2-yl)sulfanyl-acetamide] it is 3%; for `CC(C)C(=O)CSc1nc(-c2ccccc2)c(-c2ccccc2)o1` [Compound A-51, 1-(4,5-diphenyloxazol-2-yl)sulfanyl-3-methyl-butan-2-one] it is 1%.
Then `CN(C)CCSc1nc(-c2ccccc2)c(-c2ccccc2)o1` [Compound A-23, 2-(4,5-diphenyloxazol-2-yl)sulfanyl-N,N-dimethyl-ethanamine], with 62%; and `COC(=O)NCCc1nc(-c2ccccc2)c(-c2ccccc2)o1` [Compound A-63, methyl N-[2-(4,5-diphenyloxazol-2-yl)ethyl]carbamate], with −1%.
Take `CC(Sc1nnc(-c2ccccc2)c(-c2ccccc2)n1)C(=O)NC1CCCC1` (stereo not drawn) [Compound B-22, N-cyclopentyl-2-[(5,6-diphenyl-1,2,4-triazin-3-yl)sulfanyl]propanamide]: the “relative TRPM8 activation” value amounted to 87%.
In the case of `CC(Sc1nnc(-c2ccccc2)c(-c2ccccc2)n1)C(=O)N(C)C1CCCCC1` (stereo not drawn) [Compound B-39, N-cyclohexyl-2-[(5,6-diphenyl-1,2,4-triazin-3-yl)sulfanyl]-N-methyl-propanamide], the “relative TRPM8 activation” value was determined as 11%.
Then `COC(=O)C(C)Nc1nnc(-c2ccccc2)c(-c2ccccc2)n1` (stereo not drawn) [Compound B-63, methyl 2-[(5,6-diphenyl-1,2,4-triazin-3-yl)amino]propanoate], with −2%; and `CNC(=O)CCSc1nnc(-c2ccccc2)c(-c2ccccc2)n1` [Compound B-26, 3-[(5,6-diphenyl-1,2,4-triazin-3-yl)sulfanyl]-N-methyl-propanamide], with 56%.
Then `OCCSc1nnc(-c2ccccc2)c(-c2ccccc2)n1` [Compound B-46, 2-[(5,6-diphenyl-1,2,4-triazin-3-yl)sulfanyl]ethanol], with 5%; and `CCC(=O)CCc1nc(-c2ccccc2)c(-c2ccccc2)o1` [Compound A-40, 1-(4,5-diphenyloxazol-2-yl)pentan-3-one], with 5%.
Then `O=C(CSc1cnc(-c2ccccc2)c(-c2ccccc2)n1)NC1CC1` [Compound B-24, N-cyclopropyl-2-(5,6-diphenylpyrazin-2-yl)sulfanyl-acetamide], with 68%.
For `CNC(=O)/C=C/c1nc(-c2ccccc2)c(-c2ccccc2)o1` [Compound A-35, (E)-3-(4,5-diphenyloxazol-2-yl)-N-methyl-prop-2-enamide], the “relative TRPM8 activation” value is recorded as 13%.
Take `CN(C)C(=O)CSc1nnc(-c2ccccc2)c(-c2ccccc2)n1` [Compound B-27, 2-[(5,6-diphenyl-1,2,4-triazin-3-yl)sulfanyl]-N,N-dimethyl-acetamide]: the “relative TRPM8 activation” value is reported as 56%.
The figure for `CNC(=O)COc1nnc(-c2ccccc2)c(-c2ccccc2)n1` [Compound B-52, 2-[(5,6-diphenyl-1,2,4-triazin-3-yl)oxy]-N-methyl-acetamide] is 3%.
The figure for `COC(=O)CCc1nc(-c2ccccc2)c(-c2ccccc2)o1` [Compound A-73, methyl 3-(4,5-diphenyloxazol-2-yl)propanoate] is −5%.
As for `CC(C)NC(=O)CSc1nc(-c2ccccc2)c(-c2ccccc2)o1` [Compound A-19, 2-(4,5-diphenyloxazol-2-yl)sulfanyl-N-isopropyl-acetamide], the “relative TRPM8 activation” value turned out to be 75%.
The figure for `CN(C)CCSc1nnc(-c2ccccc2)c(-c2ccccc2)n1` [Compound B-36, 2-[(5,6-diphenyl-1,2,4-triazin-3-yl)sulfanyl]-N,N-dimethyl-ethanamine] is 20%; for `CC(CO)NC(=O)CSc1nc(-c2ccccc2)c(-c2ccccc2)o1` (stereo not drawn) [Compound A-26, 2-(4,5-diphenyloxazol-2-yl)sulfanyl-N-(2-hydroxy-1-methyl-ethyl)acetamide] it is 51%.
The figure for `CNC(=O)C(C)S(=O)(=O)c1nc(-c2ccccc2)c(-c2ccccc2)o1` (stereo not drawn) [Compound A-28, 2-(4,5-diphenyloxazol-2-yl)sulfonyl-N-methyl-propanamide] is 40%; for `CNC(=O)C(C)Sc1nc(-c2ccc(C)cc2)c(-c2ccc(C)cc2)o1` (stereo not drawn) [Compound A-25, 2-[4,5-bis (p-tolyl)oxazol-2-yl]sulfanyl-N-methyl-propanamide] it is 55%; for `O=C(CSc1nc(-c2ccccc2)c(-c2ccccc2)o1)NC1CCCC1` [Compound A-38, N-cyclopentyl-2-(4,5-diphenyloxazol-2-yl)sulfanyl-acetamide] it is 6%.
Then `CCC(Sc1nnc(-c2ccc(OC)c(OC)c2)c(-c2ccc(OC)c(OC)c2)n1)C(=O)NC1CCCC1` (stereo not drawn) [Compound B-61, 2-[[5,6-bis(3,4-dimethoxyphenyl)-1,2,4-triazin-3-yl]sulfanyl]-N-cyclopentyl-butanamide], with 1%.
`O=C(CCc1nc(-c2ccccc2)c(-c2ccccc2)o1)C1CC1` [Compound A-31, 1-cyclopropyl-3-(4,5-diphenyloxazol-2-yl)propan-1-one]: the “relative TRPM8 activation” value is 24%.
With `CNC(=O)C(C)Sc1nnc(-c2ccc(O)cc2)c(-c2ccc(O)cc2)n1` (stereo not drawn) [Compound B-45, 2-[[5,6-bis(4-hydroxyphenyl)-1,2,4-triazin-3-yl]sulfanyl]-N-methyl-propanamide], the “relative TRPM8 activation” value is given as 5%.
For `CC(Sc1nnc(-c2ccccc2)c(-c2ccccc2)n1)C(=O)NCc1cccs1` (stereo not drawn) [Compound B-48, 2-[(5,6-diphenyl-1,2,4-triazin-3-yl)sulfanyl]-N-(2-thienylmethyl) propanamide], the “relative TRPM8 activation” value is 4%.
Then `c1ccc(-c2nnc(NCCC3CC3)nc2-c2ccccc2)cc1` [Compound B-50, N-(2-cyclopropylethyl)-5,6-diphenyl-1,2,4-triazin-3-amine], with 3%.
For the compound `CNC(=O)C(C)Sc1cnccn1` (stereo not drawn) [Compound B-59, N-methyl-2-pyrazine-2-ylsulfanyl-propanamide], the “relative TRPM8 activation” value was 1%.
